For 2 compounds, MIC and IC50 results are on record in patent US11932640B1, “Pyrrolo[3,4-b]quinoline compounds as antibacterial agents” (KING FAISAL UNIVERSITY, priority 2023, dated 2024).

In general, MIC refers to the smallest concentration in the dilution series that meets the test's criterion for growth inhibition. For orientation: IC50 means the concentration needed to halve the response being measured.

In experiment [1] the test system is Klebsiella pneumonia MTCC 618. Kind of experiment: Antibacterial MIC, CLSI M07-A10 dilution. It counts as cell-based. As to conditions: Klebsiella pneumoniae, MTCC618.
In experiment [2] the test system is Staphylococcus aureus ATCC 29213. Kind of experiment: Antibacterial MIC, CLSI M07-A10 dilution. It is filed as cell-based. The conditions noted are these: ATCC29213.
The test system of experiment [3] is Pseudomonas aeruginosa MTCC 741. Kind of experiment: Antibacterial MIC, CLSI M07-A10 dilution. It counts as cell-based. The conditions noted are these: MTCC741.
Experiment [4] has as its system Staphylococcus aureus ATCC BAA-1556 (MERSA resistant). Kind of experiment: Antibacterial MIC, CLSI M07-A10 dilution. It counts as cell-based. The conditions noted are these: ATCCBAA1556.
For experiment [5], the system named is Staphylococcus epidermidis. Kind of experiment: Antibacterial MIC, CLSI M07-A10 dilution. It is filed as cell-based.
Another experiment has as its target T1, DNA gyrase from E. coli (Escherichia coli, UniProt P0AES4+P0AES6).
T1 construct: purchased Inspiralis
Kind of experiment: E. coli DNA gyrase inhibition (Inspiralis assay). It counts as biochemical. The procedure:
Inhibitory potencies were investigated utilizing the Inspiralis assay on streptavidin-coated 96-well microtiter plates. First, the plates were rehydrated with buffer (20 mM Tris-HCl with pH 7.6, 0.01% w/v BSA, 0.05% v/v Tween 20, 137 mM NaCl) and the biotinylated oligonucleotide was then immobilized. After washing off the unbound oligonucleotide, the enzyme test was performed. […] Reaction solutions were incubated at 37° C. for 30 min. After that, the TF buffer (50 mM NaOAc with pH 5.0, 50 mM NaCl and 50 mM MgCl2) was added to terminate the enzymatic reaction. […] The fluorescence was measured with a microplate reader (BioTek Synergy H4, excitation: 485 nm, emission: 535 nm). Initial screening was done at 100 or 10 μM concentration of inhibitors. […] GraphPad Prism software was used to calculate the IC50 values. The result is given as the average value of three independent measurements.

Experiment [6] concerns Mycobacterium tuberculosis H37Rv strain. Kind of experiment: Anti-tubercular alamar blue microplate MIC. It counts as cell-based. As to conditions: 168 h, M. tuberculosis H37Rv, 7 days at 37° C., read-out: anti-mycobacterial activity (MIC). Background: Resazurin is reduced to fluorescent resorufin, in cell work by metabolically active cells.
For experiment [7], the system named is Enterococcus faecium ATCC 51559 (VRE resistant). Kind of experiment: Antibacterial MIC, CLSI M07-A10 dilution. It is filed as cell-based.
Experiment [8] relates to Bacillus subtilis MTCC 441. Kind of experiment: Antibacterial MIC, CLSI M07-A10 dilution. The conditions noted are these: MTCC441. It is filed as cell-based.
The test system of experiment [9] is Escherichia coli MTCC 443. Kind of experiment: Antibacterial MIC, CLSI M07-A10 dilution. It is filed as cell-based. The conditions noted are these: MTCC443.
For experiment [10], the system named is Enterococcus faecium ATCC 35667. Kind of experiment: Antibacterial MIC, CLSI M07-A10 dilution. It counts as cell-based. The conditions noted are these: ATCC35667.

In brackets after ≈: the same amount, converted by molar mass. Read-outs that look alike come from different tables or passages of the source.

T1 sequence (P0AES4 whole entry, one chain of several): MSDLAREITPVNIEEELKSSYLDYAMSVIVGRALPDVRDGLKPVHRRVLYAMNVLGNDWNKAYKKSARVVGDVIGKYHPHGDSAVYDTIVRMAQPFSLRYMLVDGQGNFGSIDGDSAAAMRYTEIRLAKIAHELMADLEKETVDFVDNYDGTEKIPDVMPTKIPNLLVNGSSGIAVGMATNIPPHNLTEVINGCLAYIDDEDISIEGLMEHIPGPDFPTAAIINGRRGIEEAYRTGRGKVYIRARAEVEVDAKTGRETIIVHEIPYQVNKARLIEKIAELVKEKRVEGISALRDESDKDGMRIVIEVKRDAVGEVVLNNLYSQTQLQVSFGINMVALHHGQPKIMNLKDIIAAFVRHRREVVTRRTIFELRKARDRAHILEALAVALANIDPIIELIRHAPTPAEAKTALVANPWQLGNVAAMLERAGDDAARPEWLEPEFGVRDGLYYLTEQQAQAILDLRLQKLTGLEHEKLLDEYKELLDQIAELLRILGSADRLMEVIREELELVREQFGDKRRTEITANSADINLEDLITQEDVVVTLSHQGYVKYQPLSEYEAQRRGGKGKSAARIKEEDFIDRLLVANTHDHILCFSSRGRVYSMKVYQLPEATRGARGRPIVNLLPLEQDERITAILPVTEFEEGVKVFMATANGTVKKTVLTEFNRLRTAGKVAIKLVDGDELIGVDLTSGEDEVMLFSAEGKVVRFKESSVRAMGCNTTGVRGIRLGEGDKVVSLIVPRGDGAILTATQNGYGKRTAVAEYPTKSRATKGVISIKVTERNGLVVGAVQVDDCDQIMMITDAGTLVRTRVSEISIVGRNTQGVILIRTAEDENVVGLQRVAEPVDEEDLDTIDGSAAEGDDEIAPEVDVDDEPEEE

In [1], `CN[C@H](CC(C)C)C(=O)N[C@H]1C(=O)N[C@@H](CC(N)=O)C(=O)N[C@H]2C(=O)N[C@H]3C(=O)N[C@H](C(=O)N[C@H](C(=O)O)c4cc(O)cc(O)c4-c4cc3ccc4O)[C@H](O)c3ccc(c(Cl)c3)Oc3cc2cc(c3O[C@@H]2O[C@H](CO)[C@@H](O)[C@H](O)[C@H]2O[C@H]2C[C@](C)(N)[C@H](O)[C@H](C)O2)Oc2ccc(cc2Cl)[C@H]1O` [Vancomycin, reference compound] had an MIC of over 128 µg/mL.

With `CCCCCN(C)Cc1cc(C(=O)O)ccc1N1C(=O)c2nc3c(NC)cc(F)cc3c(O)c2C1=O` [Compound 12, 4-(7-fluoro-9-hydroxy-5-(methylamino)-1,3-dioxo-1,3-dihydro-2H-pyrrolo[3,4-b]quinolin-2-yl)-3-((methyl(pentyl)amino)methyl)benzoic acid], the MIC in experiment [1] (Klebsiella pneumonia MTCC 618, read-out: MIC) worked out at 1 µg/mL (≈ 2.02 µM); in experiment [2], 1 µg/mL (≈ 2.02 µM); in experiment [3] it was 1 µg/mL (≈ 2.02 µM); in experiment [4], 2 µg/mL (≈ 4.04 µM); in [5], 0.75 µg/mL (≈ 1.52 µM); in experiment [6], 4 µg/mL (≈ 8.09 µM). Moreover, the minimal inhibitory concentration (MIC) in experiment [7] came to 0.75 µg/mL (≈ 1.52 µM); in experiment [8], 0.5 µg/mL (≈ 1.01 µM); in experiment [9] it was 4 µg/mL (≈ 8.09 µM); in [10], 0.5 µg/mL (≈ 1.01 µM). Besides, the IC50 at DNA gyrase from E. coli came out at 16 nM.
